From patent publication US20240409556A1, “BENZOPIPERAZINE AND RELATED ANALOGS FOR INHIBITING YAP/TAZ-TEAD” (Springworks Therapeutics, Inc., priority 2023, published 2024)

The molecules below were run on YAP/TAZ-TEAD transcription (assay: Reporter gene assay for measuring the inhibition of YAP/TAZ-TEAD transcription (TEAD-responsive element luciferase reporter in Hek293T cells)). Conditions: 24 hours incubation.
Format: cell-based
Outline: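 HEK293T cells transiently transfected with a TEAD-responsive luciferase reporter were exposed to compounds for 24 h at 37° C/5% CO2, then luminescence was read. Percent inhibition normalised to vehicle (0%) and positive-control inhibitor (100%); IC50 derived.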

`CC(=O)N1CCN2c3ncccc3N(c3ccc(C(F)(F)F)cn3)CC2C1` (stereo not drawn) [compound 53, 1-(5-(5-(trifluoromethyl)pyridin-2-yl)-5,6,6a,7,9,10-hexahydro-8H-pyrazino[1,2-a]pyrido[3,2-e]pyrazin-8-yl)ethan-1-one] and `CC(=O)N1CC(=O)N2c3ccccc3N(c3ccc(C(F)(F)F)cc3)CC2C1` (stereo not drawn) [compound 79] cannot be ordered by IC50: less than 1000 nM for the first, less than 1000 nM for the second.

`COc1ccc2c(n1)OC(CNC(C)=O)CN2c1ccc(C(F)(F)F)cc1` (stereo not drawn) [compound 73, N-((6-methoxy-1-(4-(trifluoromethyl)phenyl)-2,3-dihydro-1H-pyrido[2,3-b][1,4]oxazin-3-yl)methyl)acetamide] and `CC(=O)NCC1CN(c2ccc(C(F)(F)F)cc2)c2ccc(C3CC3)nc2O1` (stereo not drawn) [compound 81, N-((6-cyclopropyl-1-(4-(trifluoromethyl)phenyl)-2,3-dihydro-1H-pyrido[2,3-b][1,4]oxazin-3-yl)methyl)acetamide] cannot be ordered by IC50: less than 1000 nM for the first, less than 1000 nM for the second.

Going from `CC(=O)NCC1CN(c2ccc(C(F)(F)F)cc2)c2cc(Cl)cnc2O1` (stereo not drawn) [compound 75, N-((7-chloro-1-(4-(trifluoromethyl)phenyl)-2,3-dihydro-1H-pyrido[2,3-b][1,4]oxazin-3-yl)methyl)acetamide] to `CC(=O)N1CC2CN(c3ccc(C(F)(F)F)cc3)c3ccccc3N2CC1C(=O)O` (stereo not drawn) [compound 90, (cis)- or (trans)-3-acetyl-6-(4-(trifluoromethyl)phenyl)-2,3,4,4a,5,6-hexahydro-1H-pyrazino[1,2-a]quinoxaline-2-carboxylic acid], the IC50 rises from less than 1000 nM to greater than 10000 nM.

`C=CC(=O)N1CC2CN(c3ccc(C(F)(F)F)cc3)c3ccccc3N2CC1C(=O)O` (stereo not drawn) [compound 89, (cis)- or (trans)-3-acryloyl-6-(4-(trifluoromethyl)phenyl)-2,3,4,4a,5,6-hexahydro-1H-pyrazino[1,2-a]quinoxaline-2-carboxylic acid] and `CC(=O)N1CC2CN(c3ccc(C(F)(F)F)cc3)c3ccccc3N2CC1C(=O)O` (stereo not drawn) [compound 91, (cis)- or (trans)-3-acetyl-6-(4-(trifluoromethyl)phenyl)-2,3,4,4a,5,6-hexahydro-1H-pyrazino[1,2-a]quinoxaline-2-carboxylic acid] cannot be ordered by IC50: less than 1000 nM for the first, less than 1000 nM for the second.

Same assay, conditions: Homo sapiens, HEK-293T, 24 h, 24 hours incubation

First: CC(=O)N1CCN2c3ncccc3N(c3ccc(C(F)(F)F)nc3)CC2C1 (stereo not drawn) [compound 54, 1-(5-(6-(trifluoromethyl)pyridin-3-yl)-5,6,6a,7,9,10-hexahydro-8H-pyrazino[1,2-a]pyrido[3,2-e]pyrazin-8-yl)ethan-1-one]
Second: CC(=O)N1CC(N2CCN(c3ccc(C(F)(F)F)cc3)c3ccccc32)C1 [compound 56, 1-(3-(4-(4-(trifluoromethyl)phenyl)-3,4-dihydroquinoxalin-1(2H)-yl)azetidin-1-yl)ethan-1-one]
The IC50 of the first is higher: 1000 to 10000 nM for the first, less than 1000 nM for the second. The second is the more potent here.

`CC(=O)NCCN1CCN(c2ccc(C(F)(F)F)cc2)c2ccccc21` [compound 57, N-(2-(4-(4-(trifluoromethyl)phenyl)-3,4-dihydroquinoxalin-1(2H)-yl)ethyl)acetamide] and `Cn1cncc1CN1CCN(c2ccc(C(F)(F)F)cc2)c2ccccc21` [compound 60, 1-((1-methyl-1H-imidazol-5-yl)methyl)-4-(4-(trifluoromethyl)phenyl)-1,2,3,4-tetrahydroquinoxaline] cannot be ordered by IC50: less than 1000 nM for the first, less than 1000 nM for the second.

Compared with `CC(=O)NCC1CN(c2ccc(C(F)(F)F)cc2)c2cccnc2S1(=O)=O` (stereo not drawn) [compound 58, N-((4,4-dioxido-1-(4-(trifluoromethyl)phenyl)-2,3-dihydro-1H-pyrido[2,3-b][1,4]thiazin-3-yl)methyl)acetamide], `CC(=O)NCC1CN(c2ccc(C(F)(F)F)cc2)c2ccc(C)nc2O1` (stereo not drawn) [compound 77, N-((6-methyl-1-(4-(trifluoromethyl)phenyl)-2,3-dihydro-1H-pyrido[2,3-b][1,4]oxazin-3-yl)methyl)acetamide] is lower in IC50: greater than 10000 nM for the first, less than 1000 nM for the second.

Compared with `CC(=O)N1CC2CN(c3ccc(C(F)(F)F)cc3)c3cccnc3N2C1=O` (stereo not drawn) [compound 59, 8-acetyl-5-(4-(trifluoromethyl)phenyl)-6,6a,7,8-tetrahydroimidazo[1,5-a]pyrido[3,2-e]pyrazin-9(5H)-one], `COC(=O)N[C@@H]1C[C@@H]2CN(c3ccc(C(F)(F)F)cc3)c3cccnc3N2C1` [compound 83, methyl ((6aR,8R)-5-(4-(trifluoromethyl)phenyl)-5,6,6a,7,8,9-hexahydropyrido[3,2-e]pyrrolo[1,2-a]pyrazin-8-yl)carbamate] is lower in IC50: greater than 10000 nM for the first, less than 1000 nM for the second. The second is the more potent here.

`Cc1ncc(CN2CCN(c3ccc(C(F)(F)F)cc3)c3ccccc32)[nH]1` [compound 61, 1-((2-methyl-1H-imidazol-5-yl)methyl)-4-(4-(trifluoromethyl)phenyl)-1,2,3,4-tetrahydroquinoxaline] and `Cc1nc[nH]c1CN1CCN(c2ccc(C(F)(F)F)cc2)c2ccccc21` [compound 66, 1-((4-methyl-1H-imidazol-5-yl)methyl)-4-(4-(trifluoromethyl)phenyl)-1,2,3,4-tetrahydroquinoxaline] cannot be ordered by IC50: less than 1000 nM for the first, less than 1000 nM for the second.

Going from `FC(F)(F)c1ccc(N2CCN(Cc3ncc[nH]3)c3ccccc32)cc1` [compound 62, 1-((1H-imidazol-2-yl)methyl)-4-(4-(trifluoromethyl)phenyl)-1,2,3,4-tetrahydroquinoxaline] to `FC(F)(F)c1ccc(N2CCN(Cc3ccno3)c3ccccc32)cc1` [compound 69, 5-((4-(4-(trifluoromethyl)phenyl)-3,4-dihydroquinoxalin-1(2H)-yl)methyl)isoxazole], the IC50 rises from less than 1000 nM to greater than 10000 nM. The first is the more potent here.

First: FC(F)(F)c1ccc(N2CCN(Cc3cccnc3)c3ccccc32)cc1 [compound 64, 1-(pyridin-3-ylmethyl)-4-(4-(trifluoromethyl)phenyl)-1,2,3,4-tetrahydroquinoxaline]
Second: FC(F)(F)c1ccc(N2CCN(Cc3cnco3)c3ccccc32)cc1 [compound 67, 5-((4-(4-(trifluoromethyl)phenyl)-3,4-dihydroquinoxalin-1(2H)-yl)methyl)oxazole]
The IC50 of the first is higher: 1000 to 10000 nM for the first, less than 1000 nM for the second. The second is the more potent here.

First: O=S1(=O)CCN2c3ncccc3N(c3ccc(C(F)(F)F)cc3)CC2C1 (stereo not drawn) [compound 68, 5-(4-(trifluoromethyl)phenyl)-5,6,6a,7,9,10-hexahydropyrido[3′,2′:5,6]pyrazino[2,1-c][1,4]thiazine 8,8-dioxide]
Second: CNC(=O)N[C@@H]1C[C@@H]2CN(c3ccc(C(F)(F)F)cc3)c3cccnc3N2C1 [compound 84, 1-methyl-3-((6aR,8R)-5-(4-(trifluoromethyl)phenyl)-5,6,6a,7,8,9-hexahydropyrido[3,2-e]pyrrolo[1,2-a]pyrazin-8-yl)urea]
The IC50 of the first is higher: 1000 to 10000 nM for the first, less than 1000 nM for the second. The second is the more potent here.

`CS(=O)(=O)N1CCN2C(=O)CN(c3ccc(C(F)(F)F)cc3)CC2C1` (stereo not drawn) [compound 71, 8-(methylsulfonyl)-2-(4-(trifluoromethyl)phenyl)octahydro-4H-pyrazino[1,2-a]pyrazin-4-one] and `CNS(=O)(=O)N1CCN2C(=O)CN(c3ccc(C(F)(F)F)cc3)CC2C1` (stereo not drawn) [compound 72, N-methyl-6-oxo-8-(4-(trifluoromethyl)phenyl)octahydro-2H-pyrazino[1,2-a]pyrazine-2-sulfonamide] cannot be ordered by IC50: greater than 10000 nM for the first, greater than 10000 nM for the second.

`O=C(c1cn[nH]c1)N1CCN(c2ccc(C(F)(F)F)cc2)c2ccccc21` [compound 74, (1H-pyrazol-4-yl)(4-(4-(trifluoromethyl)phenyl)-3,4-dihydroquinoxalin-1(2H)-yl)methanone] and `O=C1CN(c2ccc(C(F)(F)F)cc2)c2ccccc2N1Cc1cn[nH]c1` [compound 80, 1-((1H-pyrazol-4-yl)methyl)-4-(4-(trifluoromethyl)phenyl)-3,4-dihydroquinoxalin-2(1H)-one] cannot be ordered by IC50: less than 1000 nM for the first, less than 1000 nM for the second.

First: CC(=O)NCC1CN(c2ccc(C(F)(F)F)cc2)c2ccc(C(F)(F)F)nc2O1 (stereo not drawn) [compound 76, N-((6-(trifluoromethyl)-1-(4-(trifluoromethyl)phenyl)-2,3-dihydro-1H-pyrido[2,3-b][1,4]oxazin-3-yl)methyl)acetamide]
Second: CCc1ccc2c(n1)OC(CNC(C)=O)CN2c1ccc(C(F)(F)F)cc1 (stereo not drawn) [compound 82, N-((6-ethyl-1-(4-(trifluoromethyl)phenyl)-2,3-dihydro-1H-pyrido[2,3-b][1,4]oxazin-3-yl)methyl)acetamide]
The IC50 of the first is higher: 1000 to 10000 nM for the first, less than 1000 nM for the second.

First: CC(=O)NCC1CN(c2ccc(C(F)(F)F)cn2)c2cccnc2O1 (stereo not drawn) [compound 78, N-((1-(5-(trifluoromethyl)pyridin-2-yl)-2,3-dihydro-1H-pyrido[2,3-b][1,4]oxazin-3-yl)methyl)acetamide]
Second: CC(=O)NCC1CN(c2ccc(C(F)(F)F)cc2)c2ccc(N(C)C)nc2O1 (stereo not drawn) [compound 87, N-((6-(dimethylamino)-1-(4-(trifluoromethyl)phenyl)-2,3-dihydro-1H-pyrido[2,3-b][1,4]oxazin-3-yl)methyl)acetamide]
The IC50 of the first is higher: 1000 to 10000 nM for the first, less than 1000 nM for the second. The second is the more potent here.

First: C=CC(=O)N1CC2CN(c3ccc(C(F)(F)F)cc3)c3ccccc3N2CC1C(=O)O (stereo not drawn) [compound 88, (cis)- or (trans)-3-acryloyl-6-(4-(trifluoromethyl)phenyl)-2,3,4,4a,5,6-hexahydro-1H-pyrazino[1,2-a]quinoxaline-2-carboxylic acid]
Second: O=C(O)CC(=O)N[C@@H]1C[C@@H]2CN(c3ccc(C(F)(F)F)cc3)c3cccnc3N2C1 [compound 94, 3-oxo-3-(((6aR,8R)-5-(4-(trifluoromethyl)phenyl)-5,6,6a,7,8,9-hexahydropyrido[3,2-e]pyrrolo[1,2-a]pyrazin-8-yl)amino)propanoic acid]
The IC50 of the first is lower: less than 1000 nM for the first, 1000 to 10000 nM for the second.

`CNC(=O)O[C@@H]1C[C@@H]2CN(c3ccc(C(F)(F)F)cc3)c3cccnc3N2C1` [compound 92, (6aR,8R)-5-(4-(trifluoromethyl)phenyl)-5,6,6a,7,8,9-hexahydropyrido[3,2-e]pyrrolo[1,2-a]pyrazin-8-yl methylcarbamate] and `CC(=O)N[C@@H]1C[C@@H]2CN(c3ccc(C(F)(F)F)cc3)c3cc(C)cnc3N2C1` [compound 93, N-((6aR,8R)-3-methyl-5-(4-(trifluoromethyl)phenyl)-5,6,6a,7,8,9-hexahydropyrido[3,2-e]pyrrolo[1,2-a]pyrazin-8-yl)acetamide] cannot be ordered by IC50: less than 1000 nM for the first, less than 1000 nM for the second.
